Test results as given in patent publication US5654427A, “Indolocarbazole derivatives to treat a pathological condition of the prostate” (Kyowa Hakko Kogyo Co., Ltd., priority 1995, dated 1997).

Target: T1, trkA (Rattus norvegicus, UniProt P35739)
T1 construct: are rat pheochromocytoma cells that bear trkA; host or cells: PC12 rat pheochromocytoma cells
Assay: inhibition of NGF-stimulated trk autophosphorylation (tyrosine phosphorylation) in PC12 cells, anti-phosphotyrosine Western blot; note: key: +: Inhibited phosphorylation; -: Did not inhibit phosphorylation
Assay type: cell-based
Conditions: 100 nM compound, NGF 50 ng/ml

T1 sequence (P35739 33-799): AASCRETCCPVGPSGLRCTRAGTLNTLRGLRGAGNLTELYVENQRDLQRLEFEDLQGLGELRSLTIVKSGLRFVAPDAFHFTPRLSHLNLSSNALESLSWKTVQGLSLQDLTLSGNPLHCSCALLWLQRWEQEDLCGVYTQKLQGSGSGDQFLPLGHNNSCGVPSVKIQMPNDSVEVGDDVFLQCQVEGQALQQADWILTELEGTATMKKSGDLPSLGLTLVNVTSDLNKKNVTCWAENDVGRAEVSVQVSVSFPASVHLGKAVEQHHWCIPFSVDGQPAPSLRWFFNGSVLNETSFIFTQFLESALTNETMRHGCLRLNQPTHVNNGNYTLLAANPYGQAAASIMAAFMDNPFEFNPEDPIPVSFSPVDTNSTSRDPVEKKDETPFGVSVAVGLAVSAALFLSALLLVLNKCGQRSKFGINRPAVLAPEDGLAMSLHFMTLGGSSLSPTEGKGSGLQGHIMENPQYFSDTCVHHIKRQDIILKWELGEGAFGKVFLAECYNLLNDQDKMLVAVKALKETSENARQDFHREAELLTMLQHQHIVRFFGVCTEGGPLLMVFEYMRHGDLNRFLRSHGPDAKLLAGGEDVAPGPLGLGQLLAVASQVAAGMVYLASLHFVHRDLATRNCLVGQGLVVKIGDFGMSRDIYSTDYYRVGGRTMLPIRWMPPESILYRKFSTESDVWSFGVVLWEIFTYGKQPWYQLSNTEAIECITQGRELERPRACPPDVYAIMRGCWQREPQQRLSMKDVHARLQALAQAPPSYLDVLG

## COC1(CO)CC2OC1(C)n1c3ccccc3c3c4c(c5c6ccccc6n2c5c31)C(=O)NC4 (stereo not shown) [Compound I-19]
  trk 100 nM (inhibition of phosphorylation): +
